Activity calls are given as the source filed them.
Assays:
[1] = biological target: T1, Rac GTPase-activating protein 1 (Homo sapiens, UniProt Q9H0H5); assay: blockers of MgcRacGAP-driven Rac1 GTP hydrolysis – biochemical, ADP Hunter fluorescence, primary and confirmatory, confirmation (AID 624330); format: functional
T1 sequence (Q9H0H5 whole entry): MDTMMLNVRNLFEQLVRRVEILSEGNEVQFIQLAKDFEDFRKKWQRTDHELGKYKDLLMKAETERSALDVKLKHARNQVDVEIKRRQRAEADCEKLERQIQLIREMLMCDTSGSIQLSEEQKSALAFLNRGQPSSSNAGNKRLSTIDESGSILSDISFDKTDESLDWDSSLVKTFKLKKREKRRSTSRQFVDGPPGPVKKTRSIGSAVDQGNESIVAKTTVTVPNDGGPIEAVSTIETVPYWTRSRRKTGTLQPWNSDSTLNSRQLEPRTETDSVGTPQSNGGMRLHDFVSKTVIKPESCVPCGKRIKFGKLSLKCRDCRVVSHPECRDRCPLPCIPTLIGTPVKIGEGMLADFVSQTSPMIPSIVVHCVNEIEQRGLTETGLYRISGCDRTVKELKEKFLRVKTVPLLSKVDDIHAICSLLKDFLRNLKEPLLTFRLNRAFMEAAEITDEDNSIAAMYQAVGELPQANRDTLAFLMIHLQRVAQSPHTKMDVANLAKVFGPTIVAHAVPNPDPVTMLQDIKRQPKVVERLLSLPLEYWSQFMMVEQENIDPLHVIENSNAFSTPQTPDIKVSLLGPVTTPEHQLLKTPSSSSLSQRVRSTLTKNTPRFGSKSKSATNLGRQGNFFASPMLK

[2] = biological target: T2, Calpain-2 catalytic subunit (Sus scrofa, UniProt P43367); assay: m-calpain protease blockers, concentration series – biochemical, fluorogenic peptide substrate, dose response (AID 1420); format: functional
T2 sequence (P43367 whole entry): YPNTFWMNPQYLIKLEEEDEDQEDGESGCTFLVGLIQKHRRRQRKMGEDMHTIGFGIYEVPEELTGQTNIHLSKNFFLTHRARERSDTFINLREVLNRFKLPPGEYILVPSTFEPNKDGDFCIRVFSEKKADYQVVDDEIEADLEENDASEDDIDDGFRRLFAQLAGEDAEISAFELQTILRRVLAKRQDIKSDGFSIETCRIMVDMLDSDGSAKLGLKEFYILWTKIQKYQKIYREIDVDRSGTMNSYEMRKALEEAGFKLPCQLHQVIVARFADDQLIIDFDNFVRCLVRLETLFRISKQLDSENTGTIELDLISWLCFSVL

[3] = viability of uninfected HEp-2 cells – cell-based, HTS, cytotoxicity control for RSV inhibitor project, dose response (AID 2410); format: functional; settings: human respiratory syncytial virus
[4] = biological target: T3, Heat shock factor protein 1 (Mus musculus, UniProt P38532); assay: enhancement of HSF1-driven luciferase signal – cell-based, NIH3T3, luminescence, dose retest, confirmation (AID 435004); format: functional;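 note: stress induced by proteasome inhibitor MG132 added 30 min after compound; luciferase reporter driven by HSF1 response element in NIH3T3 cells; actives raise luminescence as potentiators of the MG132 stress response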
T3 sequence (P38532 whole entry): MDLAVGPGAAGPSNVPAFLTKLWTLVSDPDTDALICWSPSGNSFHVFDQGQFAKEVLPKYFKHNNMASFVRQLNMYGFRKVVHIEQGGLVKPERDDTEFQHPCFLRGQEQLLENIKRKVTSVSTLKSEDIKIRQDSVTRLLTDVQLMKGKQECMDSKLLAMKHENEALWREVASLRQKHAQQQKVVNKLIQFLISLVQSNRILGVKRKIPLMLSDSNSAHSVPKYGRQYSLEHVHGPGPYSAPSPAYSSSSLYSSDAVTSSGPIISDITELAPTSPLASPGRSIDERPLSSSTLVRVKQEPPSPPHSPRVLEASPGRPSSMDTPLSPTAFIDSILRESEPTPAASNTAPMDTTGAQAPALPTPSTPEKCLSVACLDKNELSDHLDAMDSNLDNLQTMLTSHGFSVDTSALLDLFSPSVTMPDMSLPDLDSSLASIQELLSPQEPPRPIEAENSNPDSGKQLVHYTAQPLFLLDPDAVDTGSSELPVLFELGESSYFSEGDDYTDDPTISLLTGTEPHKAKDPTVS

[5] = biological target: T4, Microphthalmia-associated transcription factor (Homo sapiens, UniProt O75030); assay: reducers of TRPM1 reporter luminescence, concentration series – cell-based, SK-MEL-5, cherry-picked, set 3, MITF inhibitor project, dose response (AID 493073); format: functional;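 note: SK-MEL-5 melanoma cells with luciferase driven by the MITF target TRPM1 promoter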
T4 sequence (O75030 whole entry): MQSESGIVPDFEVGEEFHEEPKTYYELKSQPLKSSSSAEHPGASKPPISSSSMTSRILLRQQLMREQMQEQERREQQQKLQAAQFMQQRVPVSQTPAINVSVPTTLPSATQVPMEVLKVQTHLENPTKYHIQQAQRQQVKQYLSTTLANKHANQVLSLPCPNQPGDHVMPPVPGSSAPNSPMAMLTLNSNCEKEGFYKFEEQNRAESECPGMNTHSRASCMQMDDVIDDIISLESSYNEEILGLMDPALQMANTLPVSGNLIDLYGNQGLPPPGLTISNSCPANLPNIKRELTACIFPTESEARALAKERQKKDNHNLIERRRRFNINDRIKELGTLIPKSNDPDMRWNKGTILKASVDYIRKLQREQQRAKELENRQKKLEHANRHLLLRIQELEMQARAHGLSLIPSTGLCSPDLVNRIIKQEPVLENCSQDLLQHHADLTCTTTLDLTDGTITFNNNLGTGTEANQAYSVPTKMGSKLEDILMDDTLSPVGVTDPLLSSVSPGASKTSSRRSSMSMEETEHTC

Leucine aminopeptidase = biological target: T5, Leucine aminopeptidase (Plasmodium falciparum 3D7, UniProt Q8IL11); assay: P. falciparum M17LAP inhibitors, primary screen, biochemical, fluorogenic H-Leu-NHMec substrate, 1536-well (AID 1619); format: functional
T5 sequence (Q8IL11 whole entry): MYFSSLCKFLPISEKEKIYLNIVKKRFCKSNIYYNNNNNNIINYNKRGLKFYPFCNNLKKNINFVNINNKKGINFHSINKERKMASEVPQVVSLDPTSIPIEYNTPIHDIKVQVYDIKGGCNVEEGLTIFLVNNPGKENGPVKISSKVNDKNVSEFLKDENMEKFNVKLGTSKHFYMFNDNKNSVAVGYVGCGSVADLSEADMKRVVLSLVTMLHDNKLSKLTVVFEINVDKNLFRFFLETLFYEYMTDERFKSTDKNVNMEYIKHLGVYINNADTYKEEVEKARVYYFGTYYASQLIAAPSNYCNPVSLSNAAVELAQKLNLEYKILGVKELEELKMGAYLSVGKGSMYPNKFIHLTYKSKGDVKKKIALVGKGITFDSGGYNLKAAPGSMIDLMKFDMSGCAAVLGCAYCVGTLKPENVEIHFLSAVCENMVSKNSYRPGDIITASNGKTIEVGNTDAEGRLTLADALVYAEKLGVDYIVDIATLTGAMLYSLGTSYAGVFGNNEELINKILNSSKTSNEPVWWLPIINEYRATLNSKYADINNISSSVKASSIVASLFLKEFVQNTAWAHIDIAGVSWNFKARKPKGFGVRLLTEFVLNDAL

Protein RecA = biological target: T6, Protein RecA (Mycobacterium tuberculosis, UniProt P9WHJ3); assay: Fluorescence Cell-Free Homogeneous Dose Retest to Identify Inhibitors of RecA-Intein Splicing Activity. [Related pubchem assays (depositor defined):AID2097, AID2223, AID489010, AID492950]; format: functional
T6 sequence (P9WHJ3 whole entry): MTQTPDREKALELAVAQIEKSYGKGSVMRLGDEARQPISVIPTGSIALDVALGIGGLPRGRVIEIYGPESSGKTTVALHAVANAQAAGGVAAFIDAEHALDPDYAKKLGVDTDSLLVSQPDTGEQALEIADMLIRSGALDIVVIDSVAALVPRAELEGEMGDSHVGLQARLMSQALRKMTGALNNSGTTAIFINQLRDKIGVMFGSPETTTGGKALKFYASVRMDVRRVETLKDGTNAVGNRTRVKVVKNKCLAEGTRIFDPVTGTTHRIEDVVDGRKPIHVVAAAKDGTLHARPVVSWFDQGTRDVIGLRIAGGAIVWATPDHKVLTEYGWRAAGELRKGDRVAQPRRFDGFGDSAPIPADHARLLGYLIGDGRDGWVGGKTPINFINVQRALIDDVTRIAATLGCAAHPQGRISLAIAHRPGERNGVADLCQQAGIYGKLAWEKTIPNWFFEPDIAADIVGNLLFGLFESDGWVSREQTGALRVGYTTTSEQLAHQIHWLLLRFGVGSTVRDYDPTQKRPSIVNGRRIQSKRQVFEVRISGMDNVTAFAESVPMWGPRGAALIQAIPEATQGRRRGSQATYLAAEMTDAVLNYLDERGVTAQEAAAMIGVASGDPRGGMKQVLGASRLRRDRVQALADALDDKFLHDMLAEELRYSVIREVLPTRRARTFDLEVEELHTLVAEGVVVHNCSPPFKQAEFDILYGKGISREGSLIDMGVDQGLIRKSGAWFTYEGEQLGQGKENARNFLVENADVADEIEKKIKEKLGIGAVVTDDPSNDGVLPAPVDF

[6] = biological target: T7, Replicative DNA helicase DnaB (Mycobacterium tuberculosis, UniProt P9WMR3); assay: DnaB intein splicing inhibitors, dose response, biochemical, cell-free fluorescence (AID 449749); format: functional
T7 sequence (P9WMR3 whole entry): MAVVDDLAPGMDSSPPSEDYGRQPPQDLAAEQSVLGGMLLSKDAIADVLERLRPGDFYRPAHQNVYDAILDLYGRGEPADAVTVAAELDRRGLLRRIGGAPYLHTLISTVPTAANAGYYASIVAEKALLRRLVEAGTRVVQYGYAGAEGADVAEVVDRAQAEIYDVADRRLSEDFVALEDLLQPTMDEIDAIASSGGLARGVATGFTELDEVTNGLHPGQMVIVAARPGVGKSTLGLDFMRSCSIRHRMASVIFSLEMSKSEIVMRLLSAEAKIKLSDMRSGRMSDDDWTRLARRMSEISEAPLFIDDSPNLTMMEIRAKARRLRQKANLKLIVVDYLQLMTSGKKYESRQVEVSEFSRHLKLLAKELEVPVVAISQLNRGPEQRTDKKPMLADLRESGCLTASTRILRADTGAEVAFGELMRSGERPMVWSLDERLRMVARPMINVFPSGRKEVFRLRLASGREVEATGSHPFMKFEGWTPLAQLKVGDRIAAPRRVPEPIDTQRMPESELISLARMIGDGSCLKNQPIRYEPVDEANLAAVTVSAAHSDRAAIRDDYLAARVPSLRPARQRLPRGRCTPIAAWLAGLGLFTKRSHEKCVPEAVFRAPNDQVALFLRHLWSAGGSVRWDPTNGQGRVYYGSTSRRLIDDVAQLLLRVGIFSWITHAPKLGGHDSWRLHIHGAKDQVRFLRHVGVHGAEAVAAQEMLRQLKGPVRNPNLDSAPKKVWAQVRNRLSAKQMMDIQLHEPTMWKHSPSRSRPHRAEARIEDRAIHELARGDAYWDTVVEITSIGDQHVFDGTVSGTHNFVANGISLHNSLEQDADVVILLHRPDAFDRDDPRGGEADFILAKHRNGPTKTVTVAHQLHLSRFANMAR

[7] = Trypanosoma cruzi growth suppression in host cells – NIH3T3 host cells, beta-gal luminescence, confirmation (AID 2044); format: functional, cell-based;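 note: intracellular parasites grown in NIH/3T3 mouse fibroblasts as host cells; luminescent beta-galactosidase reporter signal from transgenic T. cruzi replicating inside host cells; inhibitors lower the luminescence signal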
[8] = NIH3T3 cell viability loss – ATP luminescence, mouse fibroblasts, counter-screen, dose response (AID 2010); format: functional, cell-based;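 note: cells exposed to compound for about 90 hours before reading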
[9] = biological target: Luciferin 4-monooxygenase (Photinus pyralis, UniProt P08659); assay: inhibition of purified Photinus pyralis luciferase – biochemical, luminescence, dose response (AID 1891)
[10] = Luminescence Cell-Based Dose Confirmation HTS to Identify Inhibitors of Platelet Dense Granule Release. [Related pubchem assays: 1663 (Primary HTS), 1678 (Summary of Project)]; format: functional

Chain of Luciferin 4-monooxygenase (P08659 whole entry): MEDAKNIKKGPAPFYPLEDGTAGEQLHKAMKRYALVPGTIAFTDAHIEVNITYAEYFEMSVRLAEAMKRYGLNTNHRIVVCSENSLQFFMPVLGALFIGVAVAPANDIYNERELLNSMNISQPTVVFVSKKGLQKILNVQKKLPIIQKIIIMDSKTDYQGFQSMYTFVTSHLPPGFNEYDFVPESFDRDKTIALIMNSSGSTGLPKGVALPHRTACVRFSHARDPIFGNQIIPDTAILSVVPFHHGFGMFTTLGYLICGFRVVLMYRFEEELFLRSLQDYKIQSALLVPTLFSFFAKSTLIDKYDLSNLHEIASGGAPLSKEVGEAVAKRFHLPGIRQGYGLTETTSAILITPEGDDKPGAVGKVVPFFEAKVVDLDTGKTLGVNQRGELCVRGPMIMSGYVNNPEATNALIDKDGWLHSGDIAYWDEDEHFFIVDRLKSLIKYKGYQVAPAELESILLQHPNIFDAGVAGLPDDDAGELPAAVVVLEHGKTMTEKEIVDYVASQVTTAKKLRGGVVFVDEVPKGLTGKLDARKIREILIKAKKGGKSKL

COc1cc(/C=N/NP(=S)(c2ccccc2)c2ccccc2)ccc1O
IC50 [1]: 109 µM (active)
IC50 [2]: 14.2 µM (not active)
CC50 [3]: 30.3 µM (active)

COc1cc2c(cc1OC)C(C)N(S(=O)(=O)c1cnc(Cl)c(Cl)c1)CC2 (stereo unspecified)
EC50 [4]: 29.3 µM (active)
AC50 [5]: 12.1 µM (active)

O=C(CSc1nc2ccccc2c(=O)n1-c1ccccc1)N1CCCc2ccccc21
CC50 [3]: 39 µM (active)

Nc1n[nH]c(N)c1N=Nc1ccc(Cl)cc1
IC50 (Leucine aminopeptidase): 12.5 µM (active)

O=C(CSc1nnc(-c2ccc(NS(=O)(=O)c3ccccc3)cc2)o1)NCC1CCCO1 (stereo unspecified)
IC50 (Leucine aminopeptidase): 6.04 µM (active)

CCOC(=O)C1Nc2c(F)cc(C)cc2C2c3ccccc3CC12 (stereo unspecified)
EC50 (Protein RecA): 36 µM (active)
CC50 [3]: 31.9 µM (active)
AC50 [6]: 11.4 µM (active)

O=C(CCCl)Nc1nc2c(s1)CCc1ccccc1-2
EC50 [4]: 22.2 µM (active)
CC50 [3]: 4.52 µM (active)

CCOc1ccc2nc(NC(=O)C3CCCN(S(=O)(=O)c4cccs4)C3)sc2c1 (stereo unspecified)
EC50 [7]: 2.51 µM (active)
CC50 [3]: 24.3 µM (active)
EC50 [8]: > 60 µM (not active)

COC(=O)/C=C1\SC(N/N=C/c2ccc(Cl)cc2)=NC1=O
EC50 [9]: 41.5 µM (active)
EC50 [10]: > 112 µM (not active)
CC50 [3]: 23.5 µM (active)

COc1ccc2c(c1OC)C(=O)OC2Nc1nc(-c2cc3ccccc3oc2=O)cs1 (stereo unspecified)
IC50 (Leucine aminopeptidase): 5.03 µM (active)

Cc1cccc(-n2ncc3c(NC(C)C)ncnc32)c1
CC50 [3]: 34.4 µM (active)

Source: ChEMBL document CHEMBL1201862, “PubChem BioAssay data set” (2004)
